Consider one compound from patent US12427151B2, “Compositions and method of treating cancer” (The Regents of the University of California, priority 2017, dated 2025).

The test system of one assay is GAS (NZ131). In words: Radial diffusion assay against GAS. Particulars: fraction purified from MO34 conditioned media. The class given is cell-based, group A streptococcus. The source says: (a) Screening for antimicrobial activity of culture supernatant from 44 strains of S. epidermidis strains isolated from normal human skin by radial diffusion assay against group A streptococcus (GAS). Data represent diameter of growth inhibition zone of conditioned media of each strain. UD=undetectable. (b) Elution profile of the antimicrobial compound purified from culture supernatant of S. epidermidis MO34 by HPLC using a PolyHYDROXYMETHYL. The last step of 5 purification steps is shown. The insert panel represents antimicrobial activity of each fraction on radial diffusion assay against GAS. Green line represents a gradient of H2O in acetonitrile. […] Antimicrobial activity against GAS was determined by radial diffusion assay. […]
S. epidermidis strains from human skin produce non-proteinaceous antibiotic. To screen for commensal skin bacteria producing antimicrobial activity, 44 strains of S. epidermidis from clinical isolates of normal human skin were cultured overnight and the antimicrobial activity produced by each isolate was determined by radial diffusion assay of their conditioned media against GAS (FIG. 1a). […]

The subject of assay [1] is Klenow fragment (exo) DNA polymerase. Nature of the assay: In vitro DNA polymerization assay. The class given is biochemical. The settings on record: cell free system, in the presence of 6-HAP. How it is done: (a) Time course killing of GAS in THB containing 6-HAP (25 μg/mL), mitomycin C (5 μg/mL), or LL-37 (10 μM). At each indicated time point, live GAS in the media was measured by counting CFU on an agar plate. The data represent mean±SE of four individual experiments. (b) Membrane permeability of GAS incubated in THB containing 6-HAP (25 μg/mL), mitomycin C (5 μg/mL) and LL-37 (10 μM) for 1 hr. The bacteria with compromised plasma membranes (Red) can be distinguished from those with intact membranes (Green). (c) BrdU incorporation into nascent DNA of GAS after incubation with 6-HAP (25 μg/mL) or mitomycin C (5 μg/mL) in THB containing BrdU (10 μM) for 30 or 60 min. (d) BrdU incorporation into nascent DNA of S. epidermidis ATCC12228 after incubation with 6-HAP (25 μg/mL) or mitomycin C (5 μg/mL) in THB containing BrdU (10 μM) for 60 min. […] Extension reaction was analyzed on a 20% acrylamide gel by electrophoresis (f). […] GAS survival was measured by counting CFU. […]
In vitro DNA polymerization assay. […] Fluorescence was visualized with Oddyssey Imaging System (LI-COR Biosciences, Lincoln, NE).
We next assessed the effect of 6-HAP on DNA synthesis. […] To directly examine the action of 6-HAP on DNA extension in a cell free system, 25-bp templates and matching 18-bp fluorescence primers were designed to measure DNA extension in vitro by Klenow (exo) DNA polymerase (FIG. 4e).

Consider `ONc1ncnc2nc[nH]c12` [6-HAP, 6-N-hydroxyaminopurine], for which, in the assay with GAS (NZ131), the “zones of inhibition of GAS growth by purified fraction” value is “strong zones of inhibition”. Further, in assay [1], the “DNA extension, template requiring adenosine (X=T)” value was “lack of extension” and the “DNA extension, template requiring cytosine (X=G)” value was “synthesis of the expected extended DNA product”.
